Here are results for 7 compounds from ChEMBL document CHEMBL1201862, “PubChem BioAssay data set” (2004).

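Briefly, cells in 96-well plates were exposed to five compound concentrations for 48 h, and endpoints were estimated by linear interpolation. The concentration for 50% growth inhibition is given as GI50.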 Active and inactive are the calls of the source. Cut-off read from the data, not from the text of the source: active = GI50 up to about 1.1 µM and inactive = higher.

Assay in all cases: growth of human tumour cells (NCI), 48 h
The test system of assay [1] is A549.
For assay [2], the system named is EKVX.
The test system of assay [3] is HCT-15.
Assay [4] relates to HT-29.
Assay [5] concerns MDA-MB-231.
Assay [6] relates to MDA-MB-435.
The subject of assay [7] is Malme-3M.
Assay [8] has as its system NCI-H226.
Assay [9] relates to NCI-H460.
Assay [10] deals with OVCAR-4.
Assay [11] deals with OVCAR-8.
Assay [12] deals with PC-3.
For assay [13], the system named is RPMI-8226.
Assay [14] has as its system SF-268.
Assay [15] has as its system SF-295.
Assay [16] concerns SF-539.
Assay [17] has as its system SK-MEL-5.
Assay [18] concerns SK-OV-3.
Assay [19] deals with SNB-75.
Assay [20] concerns T47D.

For the compound `COc1cc(C2SC(=N)Nc3c2c(C)nn3C(=O)c2ccc(Cl)cc2)ccc1O` (stereo not given), the GI50 in [1] was > 10 µM (inactive); in assay [2], > 10 µM (inactive); in [3], more than 10 µM; in [4], > 10 µM (inactive); in assay [5], > 10 µM (inactive); in [6], > 10 µM (inactive). The GI50 in assay [7], in assay [8], in [9], in [10], in assay [11] and in [12] was > 10 µM (inactive) each time. The GI50 in [13], in [14], in assay [15], in assay [16], in [17] and in assay [18] was > 10 µM (inactive) throughout. For the same compound, the GI50 in assay [19] and in assay [20] was > 10 µM (inactive) in each case.

For `CCOC(=O)NC(Nc1ccc(S(=O)(=O)Nc2nc(C)cc(C)n2)cc1)(C(=O)OCC)C(F)(F)F` (stereo not given), the GI50 is > 100 µM (inactive) in assay [1]; > 100 µM (inactive) in [2]; more than 100 µM in [3]; > 100 µM (inactive) in [4]; > 100 µM (inactive) in assay [5]; > 100 µM (inactive) in assay [6]. For the same compound, the GI50 in assay [7], in assay [8], in assay [9], in [10], in assay [11] and in assay [12] was > 100 µM (inactive) in each case. For the same compound, the GI50 in assay [13], in assay [14], in [15], in [16], in [17] and in assay [18] was > 100 µM (inactive) throughout. In addition, the GI50 in assay [19] and in [20] was > 100 µM (inactive) each time.

For `COc1cccc(/N=N/C(=N\NC(=O)c2ccc(C)cc2)c2ccc(N(CCC#N)CCC#N)cc2C)c1`, the GI50 in [1] is > 100 µM (inactive); in assay [2] it was 66.5 µM (inactive); in assay [3] it was more than 100 µM; in assay [4], > 100 µM (inactive); in assay [5], 63.1 µM (inactive); in assay [6], 64.3 µM (inactive). The GI50 in assay [7] was > 100 µM (inactive); in assay [8], > 100 µM (inactive); in [9], > 100 µM (inactive); in assay [10] it was 25.1 µM (inactive); in [11], 35.1 µM (inactive); in assay [12], 64.6 µM (inactive). Further, the GI50 is > 100 µM (inactive) in assay [13]; > 100 µM (inactive) in assay [14]; 85.7 µM (inactive) in [15]; > 100 µM (inactive) in assay [16]; > 100 µM (inactive) in assay [17]; 48.2 µM (inactive) in assay [18]. The figures for the GI50 in assay [19] and in [20] were 53.1 µM (inactive) and 41.1 µM (inactive), respectively.

On to `C=C1CC(C)(c2cccc(Nc3nc4ccccc4c4occc34)c2)OC1=O` (stereo not given), for which the GI50 was 3.92 µM (inactive) in [1]; 14.7 µM (inactive) in [2]; 3.52 µM in assay [3]; 4.99 µM (inactive) in [4]; 5.11 µM (inactive) in [5]; 5.11 µM (inactive) in assay [6]. For the same compound, the GI50 in assay [7] is 17.6 µM (inactive); in assay [8], 1.5 µM (inactive); in assay [9], 15.6 µM (inactive); in [10] it was 7.89 µM (inactive); in assay [11] it was 6.08 µM (inactive); in assay [12], 5.52 µM (inactive). Moreover, the GI50 in assay [13] was 2.03 µM (inactive); in assay [14] it was 10.5 µM (inactive); in assay [15], 16.8 µM (inactive); in [16], 1.69 µM (inactive); in [17] it was 15.1 µM (inactive); in assay [18] it was 13.7 µM (inactive). Further, the results for the GI50 in [19] and in assay [20] were 5.58 µM (inactive) and 3.1 µM (inactive), respectively.

On to `N=C(N)SCCON1C(=O)c2ccccc2C1=O`, for which the GI50 in [1] is > 100 µM (inactive); in assay [2] it was > 100 µM (inactive); in assay [3], more than 100 µM; in assay [4], > 100 µM (inactive); in assay [5] it was > 100 µM (inactive); in assay [6] it was > 100 µM (inactive). Moreover, the GI50 in assay [7], in [8], in assay [9], in assay [10], in assay [11] and in assay [12] was > 100 µM (inactive) each time. Moreover, the GI50 in assay [13], in assay [14], in assay [15], in assay [16], in [17] and in assay [18] was > 100 µM (inactive) throughout. The GI50 in assay [19] and in assay [20] was > 100 µM (inactive) throughout.

As to `O=[N+]([O-])c1cc(C(F)(F)F)cc2n[se]nc12`, the GI50 is 11.4 µM (inactive) in assay [1]; 5.3 µM (inactive) in assay [2]; 2.28 µM in assay [3]; 7.29 µM (inactive) in [4]; 2.13 µM (inactive) in [5]; 2.33 µM (inactive) in [6]. Also, the GI50 in assay [7] was 1.79 µM (inactive); in assay [8], 20.6 µM (inactive); in assay [9], 6.22 µM (inactive); in [10], 1.97 µM (inactive); in [11], 1.97 µM (inactive); in assay [12] it was 4 µM (inactive). The GI50 in assay [13] was 1.21 µM (inactive); in assay [14], 5 µM (inactive); in assay [15], 12.5 µM (inactive); in assay [16], 3.89 µM (inactive); in [17], 3.24 µM (inactive); in assay [18], 13.6 µM (inactive). Further, the GI50 in assay [19] is 7.64 µM (inactive); in assay [20], 3.17 µM (inactive).

As to `CC(NC(=O)OCc1ccccc1)NC(=O)C(CC(=O)OC(C)(C)C)NC(=O)OC(C)(C)C` (stereo not given), the GI50 was > 100 µM (inactive) in assay [1]; > 100 µM (inactive) in assay [2]; more than 100 µM in assay [3]; > 100 µM (inactive) in [4]; > 100 µM (inactive) in [5]; > 100 µM (inactive) in assay [6]. For the same compound, the GI50 in assay [7], in assay [8], in assay [9], in assay [10], in assay [11] and in assay [12] was > 100 µM (inactive) each time. For the same compound, the GI50 was > 100 µM (inactive) in assay [13]; 98.4 µM (inactive) in assay [14]; > 100 µM (inactive) in assay [15]; > 100 µM (inactive) in assay [16]; > 100 µM (inactive) in assay [17]; > 100 µM (inactive) in assay [18]. For the same compound, the GI50 in [19] and in assay [20] was > 100 µM (inactive) each time.
